Measured values from patent US6048854A, “2,3-diaminopropionic acid derivative” (Sumitomo Pharmaceuticals Company, Limited, priority 1993, dated 2000).

What follows are molecules tested on platelet aggregation (assay: Platelet aggregation inhibitory activity (ADP-induced, human platelet rich plasma)). Conditions: Homo sapiens, Table 2, same manner as Example 17.
Assay type: cell-based
Description: The blood was collected from the elbow vein of a normal volunteer with mixing thereof with 1/10 volume of 3.8% sodium citrate, and the blood was centrifuged at 1000 rpm (150 g) for 10 minutes to give the supernatant as platelet rich plasma (PRP). To PRP (200 μl) was added a test compound solution (2 μl), and the mixture was incubated with stirring at 1000 rpm at 37° C. for two minutes, and thereto was added a platelet aggregator, adenosine diphosphate (ADP, 22 μl) at a final concentration of 3 μg/ml. The platelet aggregation activity was determined by nephelometric analysis using a Hematracer (manufactured by Niko Bioscience, Ltd.). The test results of platelet aggregation inhibitory activity are expressed by IC50, which is a concentration of the test compound being required to inhibit the platelet aggregation reaction by 50%.
The compounds of Examples 18 to 70 were tested in the same manner as in Example 17.
The compounds of Examples 72 to 116 were tested in the same manner as in Example 17.

IC50 | Structure (SMILES)
185 nM | CC(C)(C)c1ccc(S(=O)(=O)N[C@@H](CNC(=O)CCNC(=O)CCC2CCNCC2)C(=O)O)cc1 [Example 39, (2S)-2-(4-t-butyl)benzenesulfonylamino-3-(3-(3-(4-piperidyl)propanoylamino)propanoylamino)propanoic Acid]
57 nM | COc1ccc(S(=O)(=O)N[C@@H](CNC(=O)C2CCCN(C(=O)CCC3CCNCC3)C2)C(=O)O)cc1 (stereo partly drawn) [Example 70, (2S)-2-(4-methoxy)benzenesulfonylamino-3-(1-(3-(4-piperidyl)propanoyl)-3-piperidylcarbonylamino)propanoic Acid]
16 nM | COc1ccc(S(=O)(=O)N[C@@H](CNC(=O)CCCCc2ccc(C(=N)N)cc2)C(=O)O)cc1 [Example 66, (2S)-3-(5-(4-amidinophenyl)pentanoylamino)-2-(4-methoxy)benzenesulfonylaminopropanoic Acid]
121 nM | CCCS(=O)(=O)N[C@@H](CNC(=O)CCNC(=O)CCC1CCNCC1)C(=O)O [Example 45, (2S)-3-(3-(3-(4-piperidyl)propanoylamino)propanoylamino)-2-propanesulfonylaminopropanoic Acid]
26 nM | O=C(CCC1CCNCC1)NCCC(=O)NC[C@H](NS(=O)(=O)c1ccccc1C(F)(F)F)C(=O)O [Example 27]
58 nM | O=C(CCC1CCNCC1)NCCC(=O)NC[C@H](NS(=O)(=O)c1cccc(C(F)(F)F)c1)C(=O)O [Example 28, (2S)-3-(3-(3-(4-piperidyl)propanoylamino)propanoylamino)-2-(3-trifluoromethyl)benzenesulfonylaminopropanoic Acid]
16 nM | O=C(CCC1CCNCC1)NCCC(=O)NC[C@H](NS(=O)(=O)c1ccccc1[N+](=O)[O-])C(=O)O [Example 30, (2S)-2-(2-nitro)benzenesulfonylamino-3-(3-(3-(4-piperidyl)propanoylamino)propanoylamino)propanoic Acid]
111 nM | O=C(CCCC1CCNCC1)NCCC(=O)NC[C@H](NS(=O)(=O)c1ccccc1)C(=O)O [Example 53, (2S)-2-benzenesulfonylamino-3-(3-(4-(4-piperidyl)butanoylamino)propanoylamino)propanoic Acid]
151 nM | O=C(CCC1CCNCC1)NCCC(=O)NC[C@H](NS(=O)(=O)c1ccc([N+](=O)[O-])cc1)C(=O)O [Example 32, (2S)-2-(4-nitro)benzenesulfonylamino-3-(3-(3-(4-piperidyl)propanoylamino)propanoylamino)propanoic Acid]
35 nM | O=C(CCC1CCNCC1)NCCC(=O)NC[C@H](NS(=O)(=O)c1cccc2ccccc12)C(=O)O [Example 41, (2S)-2-(1-naphthalene)sulfonylamino-3-(3-(3-(4-piperidyl)propanoylamino)propanoylamino)propanoic Acid]
300 nM | O=C(CCNC(=O)COC1CCNCC1)NC[C@H](NS(=O)(=O)c1ccccc1)C(=O)O [Example 55, (2S)-2-benzenesulfonylamino-3-(3-(2-(4-piperidyloxy)ethanoylamino)propanoylamino)propanoic Acid]
30 nM | Cc1ccccc1S(=O)(=O)N[C@@H](CNC(=O)CCNC(=O)CCC1CCNCC1)C(=O)O [Example 24, (2S)-2-(2-methyl)benzenesulfonylamino-3-(3-(3-(4-piperidyl)propanoylamino)propanoylamino)propanoic Acid]
79 nM | O=C(CCCC(=O)NC[C@H](NS(=O)(=O)c1ccccc1)C(=O)O)NCC1CCNCC1 [Example 54, (2S)-2-benzenesulfonylamino-3-(4-(4-piperidylmethylcarbamoyl)butanoylamino)propanoic Acid]
203 nM | CC(C)c1ccc(S(=O)(=O)N[C@@H](CNC(=O)CCNC(=O)CCC2CCNCC2)C(=O)O)cc1 [Example 50, (2S)-2-(4-isopropyl)benzenesulfonylamino-3-(3-(3-(4-piperidyl)propanoylamino)propanoylamino)propanoic Acid]
79 nM | CCCCS(=O)(=O)N[C@@H](CNC(=O)CCCCOc1ccc(C(=N)N)cc1)C(=O)O [Example 65, (2S)-3-(5-(4-amidinophenoxy)pentanoylamino)-2-butanesulfonylaminopropanoicAcid]
62 nM | O=C(CCC1CCNCC1)NCCC(=O)NC[C@H](NS(=O)(=O)c1ccc(Cl)cc1)C(=O)O [Example 36, (2S)-2-(4-chloro)benzenesulfonylamino-3-(3-(3-(4-piperidyl)propanoylamino)propanoylamino)propanoic Acid]

Structure (SMILES) | IC50
CCCCOc1ccc(S(=O)(=O)N[C@@H](CNC(=O)CCNC(=O)CCC2CCNCC2)C(=O)O)cc1 [Example 48, (2S)-2-(4-butoxy)benzenesulfonylamino-3-(3-(3-(4-piperidyl)propanoylamino)propanoylamino)propanoic Acid] | 67 nM

Same assay, conditions: Homo sapiens, Table 3, same manner as Example 17

IC50 | Structure (SMILES)
44 nM | N=C(N)c1ccc(CCCCC(=O)NC[C@H](NS(=O)(=O)c2cccc3ccccc23)C(=O)O)cc1 [Example 88, (2S)-3-(5-(4-amidinophenyl)pentanoylamino)-2-(1-naphthalene)sulfonylaminopropanoic Acid]
162 nM | N=C(N)c1ccc(C(=O)NCCC(=O)NC[C@@H](NS(=O)(=O)c2ccccc2)C(=O)O)cc1 [Example 73, (2R)-3-(3-(4-amidinobenzoylamino)propanoylamino)-2-benzenesulfonylaminopropanoic Acid]
25 nM | CCCCNC(=N)c1ccc(C(=O)NCCC(=O)NC[C@H](NS(=O)(=O)c2ccccc2)C(=O)O)cc1 [Example 103, (2S)-2-benzenesulfonylamino-3-(3-(4-(N-n-butylamidino)benzoylamino)propanoylamino)propanoic Acid]
22 nM | N=C(N)c1ccc(OCCCC(=O)NC[C@H](NS(=O)(=O)c2ccccc2N)C(=O)O)cc1 [Example 84, (2S)-3-(4-(4-amidinophenoxy)butanoylamino)-2-(2-amino)benzenesulfonylaminopropanoic Acid]
15 nM | N=C(N)c1ccc(CCCCC(=O)NC[C@H](NS(=O)(=O)c2ccccc2C(F)(F)F)C(=O)O)cc1 [Example 90, (2S)-3-(5-(4-amidinophenyl)pentanoylamino)-2-(2-trifluoromethyl)benzenesulfonylaminopropanoic Acid]
52 nM | COc1cccc2c(S(=O)(=O)N[C@@H](CNC(=O)CCNC(=O)CCC3CCNCC3)C(=O)O)cccc12 [Example 72, (2S)-2-(5-methoxy-1-naphthalene)sulfonylamino-3-(3-(3-(4-piperidyl)propanoylamino)propanoylamino)propanoic Acid]
49 nM | CCc1ccc(S(=O)(=O)N[C@@H](CNC(=O)CCN(C)C(=O)c2ccc(C(=N)N)cc2)C(=O)O)cc1 [Example 97, (2S)-3-(3-(4-amidinobenzoylmethylamino)propanoylamino)-2-(4-ethyl)benzenesulfonylaminopropanoic Acid]
28 nM | CCCCCCNC(=N)c1ccc(C(=O)NCCC(=O)NC[C@H](NS(=O)(=O)c2ccccc2)C(=O)O)cc1 [Example 104, (2S)-2-benzenesulfonylamino-3-(3-(4-(N-n-hexylamidino)benzoylamino)propanoylamino)propanoic Acid]
103 nM | CCc1ccc(S(=O)(=O)N[C@@H](CNC(=O)CCNC(=O)c2ccc(C(=N)N)cc2)C(=O)OCOC(=O)C(C)(C)C)cc1 [Example 116, (2S)-3-(3-(4-amidinobenzoylamino)propanoylamino)-2-(4-ethyl)benzenesulfonylaminopropanoic Acid Pivaloyloxymethyl Ester]

Same assay, conditions: Table 1, human PRP, ADP 3 μg/ml, 37° C.

IC50 | Structure (SMILES)
3630 nM | CCCCS(=O)(=O)N[C@H](CNC(=O)CCNC(=O)CCC1CCNCC1)C(=O)O [Example 9, (2R)-2-butanesulfonylamino-3-(3-(3-(4-piperidyl)propanoylamino)propanoylamino)propanoic Acid]
376 nM | O=C(CCC(=O)NC[C@H](NS(=O)(=O)c1ccccc1)C(=O)O)NCCC1CCNCC1 [Example 6, (2S)-2-benzenesulfonylamino-3-(N-(2-(4-piperidyl)ethyl)succinamylamino)propanoic Acid]
232 nM | O=C(CCC1CCNCC1)NCCC(=O)NC[C@H](NS(=O)(=O)Cc1ccccc1)C(=O)O [Example 10, (2S)-2-benzylsulfonylamino-3-(3-(3-(4-piperidyl)propanoylamino)propanoylamino)propanoic Acid]
2990 nM | CCCCS(=O)(=O)N[C@@H](CNC(=O)CNC(=O)CCCC1CCNCC1)C(=O)O [Example 5, (2S)-2-butanesulfonylamino-3-(N-(4-(4-piperidyl)butanoyl)glycylamino)propanoic Acid]
2530 nM | COc1ccc(C[C@H](NC(=O)CCC2CCNCC2)C(=O)NCC(=O)NC[C@H](NS(C)(=O)=O)C(=O)O)cc1 [Example 16, (2S)-2-methanesulfonylamino-3-(N-(3-(4-piperidyl)propanoyl)-O-methyl-L-tyrosylglycylamino)propanoic Acid]
513 nM | O=C(CCC1CCNCC1)NCCC(=O)NC[C@H](NC(=O)OCc1ccccc1)C(=O)O [Example 4, (2S)-2-Benzyloxycarbonylamino-3-(3-(3-(4-piperidyl)propanoylamino)propanoylamino)propanoic Acid]
8730 nM | CCCCC(=O)N[C@@H](CNC(=O)CCNC(=O)CCC1CCNCC1)C(=O)O [Example 11, (2S)-2-pentanoylamino-3-(3-(3-(4-piperidyl)propanoylamino)propanoylamino)propanoic Acid]
1370 nM | CCCCS(=O)(=O)N[C@@H](CNC(=O)CNC(=O)CCCCC1CCNCC1)C(=O)O [Example 12, (2S)-2-butanesulfonylamino-3-(N-(5-(4-piperidyl)pentanoyl)glycylamino)propanoic Acid]
